According to the NIST ThermoML archive (doi:10.1016/j.jct.2005.04.018):

Settings: Liquid, Vibrating tube method

CCCCCC[n+]1ccn(C)c1.O=S(=O)([N-]S(=O)(=O)C(F)(F)F)C(F)(F)F
Settings	mass density [kg/m3]
298.15 K, 100 kPa	1370.81
298.15 K, 1830 kPa	1372.13
298.15 K, 10020 kPa	1378.18
298.15 K, 14980 kPa	1381.7
298.15 K, 19750 kPa	1384.98
298.15 K, 25860 kPa	1389.1
298.15 K, 31480 kPa	1392.73
298.15 K, 37770 kPa	1396.74
298.15 K, 44170 kPa	1400.64
298.15 K, 50750 kPa	1404.48
298.15 K, 59590 kPa	1409.53
299.15 K, 100 kPa	1369.96
299.15 K, 1830 kPa	1371.27
299.15 K, 10020 kPa	1377.3
299.15 K, 14980 kPa	1380.81
299.15 K, 19750 kPa	1384.12
299.15 K, 25860 kPa	1388.22
299.15 K, 31480 kPa	1391.88
299.15 K, 37770 kPa	1395.86
299.15 K, 44170 kPa	1399.77
299.15 K, 50750 kPa	1403.7
299.15 K, 59590 kPa	1408.77
300.15 K, 100 kPa	1368.97
300.15 K, 1830 kPa	1370.29
300.15 K, 10020 kPa	1376.36
300.15 K, 14980 kPa	1379.86
300.15 K, 19750 kPa	1383.21
300.15 K, 25860 kPa	1387.32
300.15 K, 31480 kPa	1391
300.15 K, 37770 kPa	1395.01
300.15 K, 44170 kPa	1398.88
300.15 K, 50750 kPa	1402.84
300.15 K, 59590 kPa	1407.93
301.15 K, 100 kPa	1368.11
301.15 K, 1830 kPa	1369.42
301.15 K, 10020 kPa	1375.49
301.15 K, 14980 kPa	1379.01
301.15 K, 19750 kPa	1382.28
301.15 K, 25860 kPa	1386.44
301.15 K, 31480 kPa	1390.11
301.15 K, 37770 kPa	1394.07
301.15 K, 44170 kPa	1398.06
301.15 K, 50750 kPa	1401.99
301.15 K, 59590 kPa	1407.14
302.15 K, 100 kPa	1367.15
302.15 K, 1830 kPa	1368.47
302.15 K, 10020 kPa	1374.56
302.15 K, 14980 kPa	1378.1
302.15 K, 19750 kPa	1381.43
302.15 K, 25860 kPa	1385.56
302.15 K, 31480 kPa	1389.24
302.15 K, 37770 kPa	1393.28
302.15 K, 44170 kPa	1397.22
302.15 K, 50750 kPa	1401.19
302.15 K, 59590 kPa	1406.37
303.15 K, 100 kPa	1366.24
303.15 K, 1830 kPa	1367.56
303.15 K, 10020 kPa	1373.64
303.15 K, 14980 kPa	1377.17
303.15 K, 19750 kPa	1380.47
303.15 K, 25860 kPa	1384.59
303.15 K, 31480 kPa	1388.3
303.15 K, 44170 kPa	1396.31
303.15 K, 50750 kPa	1400.29
303.15 K, 59590 kPa	1405.51
308.15 K, 100 kPa	1361.65
308.15 K, 1830 kPa	1362.96
308.15 K, 10020 kPa	1369.05
308.15 K, 14980 kPa	1372.62
308.15 K, 19750 kPa	1375.95
308.15 K, 25860 kPa	1380.12
308.15 K, 31480 kPa	1383.86
308.15 K, 37770 kPa	1387.93
308.15 K, 44170 kPa	1391.98
308.15 K, 50750 kPa	1396.05
308.15 K, 59590 kPa	1401.4
313.15 K, 100 kPa	1357.01
313.15 K, 1830 kPa	1358.32
313.15 K, 10020 kPa	1364.45
313.15 K, 14980 kPa	1368.01
313.15 K, 19750 kPa	1371.36
313.15 K, 25860 kPa	1375.57
313.15 K, 31480 kPa	1379.34
313.15 K, 37770 kPa	1383.47
313.15 K, 44170 kPa	1387.6
313.15 K, 50750 kPa	1391.76
313.15 K, 59590 kPa	1397.25
318.15 K, 100 kPa	1352.32
318.15 K, 1830 kPa	1353.62
318.15 K, 10020 kPa	1359.84
318.15 K, 14980 kPa	1363.45
318.15 K, 25860 kPa	1371.1
318.15 K, 31480 kPa	1374.91
318.15 K, 37770 kPa	1379.09
318.15 K, 44170 kPa	1383.28
318.15 K, 50750 kPa	1387.51
323.15 K, 100 kPa	1348.05
323.15 K, 1830 kPa	1349.36
323.15 K, 10020 kPa	1355.55
323.15 K, 14980 kPa	1359.13
323.15 K, 19750 kPa	1362.5
323.15 K, 25860 kPa	1366.73
323.15 K, 31480 kPa	1370.56
323.15 K, 37770 kPa	1374.72
323.15 K, 44170 kPa	1378.88
323.15 K, 50750 kPa	1383.17
325.15 K, 100 kPa	1346.34
325.15 K, 1830 kPa	1347.7
325.15 K, 10020 kPa	1354.03
325.15 K, 14980 kPa	1357.71
325.15 K, 19750 kPa	1361.18
325.15 K, 25860 kPa	1365.48
325.15 K, 31480 kPa	1369.35
325.15 K, 37770 kPa	1373.57
325.15 K, 44170 kPa	1377.76
325.15 K, 50750 kPa	1382.02
327.15 K, 100 kPa	1344.39
327.15 K, 1830 kPa	1345.74
327.15 K, 10020 kPa	1352.05
327.15 K, 14980 kPa	1355.75
327.15 K, 19750 kPa	1359.21
327.15 K, 25860 kPa	1363.58
327.15 K, 31480 kPa	1367.53
327.15 K, 37770 kPa	1371.82
327.15 K, 44170 kPa	1376.09
327.15 K, 50750 kPa	1380.39
329.15 K, 100 kPa	1342.33
329.15 K, 1830 kPa	1343.71
329.15 K, 10020 kPa	1350.14
329.15 K, 14980 kPa	1353.87
329.15 K, 19750 kPa	1357.38
329.15 K, 25860 kPa	1361.77
329.15 K, 31480 kPa	1365.68
329.15 K, 37770 kPa	1369.99
329.15 K, 44170 kPa	1374.26
329.15 K, 50750 kPa	1378.59
331.15 K, 100 kPa	1340.37
331.15 K, 1830 kPa	1341.75
331.15 K, 10020 kPa	1348.2
331.15 K, 14980 kPa	1351.91
331.15 K, 19750 kPa	1355.44
331.15 K, 25860 kPa	1359.84
331.15 K, 31480 kPa	1363.79
331.15 K, 37770 kPa	1368.1
331.15 K, 44170 kPa	1372.39
331.15 K, 50750 kPa	1376.72
333.15 K, 100 kPa	1338.24
333.15 K, 1830 kPa	1339.65
333.15 K, 10020 kPa	1346.2
333.15 K, 14980 kPa	1349.99
333.15 K, 19750 kPa	1353.57
333.15 K, 25860 kPa	1358.01
333.15 K, 31480 kPa	1361.98
333.15 K, 37770 kPa	1366.34
333.15 K, 44170 kPa	1370.63
333.15 K, 50750 kPa	1374.95
